Assay results from the supplement of paper PMC10307832.

Tests used:
Test in all cases: relative viability (nuclei count vs DMSO), 5 days (fraction); higher = more cells survive
[1] = compound: CC1=NN=C(O1)C2=NN=C(C=C2)N3CCC(CC3)OC4=C(C=CC(=C4)F)Cl + NC(=O)Nc1cc(-c2cccc(F)c2)sc1C(=O)N[C@H]1CCCNC1 [AZD7762] (partner 0.2 µM)
In short: (§1)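 Lung cancer cell lines in 1536-well plates were dosed by pin tool the day after seeding, either with one drug alone or with a fixed anchor-drug dose plus five library-drug doses (not always all listed) in √10 steps. After 5 days, cells were fixed and their nuclei stained in one step (final 0.05% Triton X-100, 1% formaldehyde, 1 ug/ml Hoechst), then counted on 4× images. Relative viability is the nuclei count in treated wells divided by that in vehicle wells. Values are medians of duplicate plates.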

Tosedostat + Pictilisib = compound: CC(C)C[C@@H](C(=O)N[C@H](C(=O)OC1CCCC1)c1ccccc1)[C@H](O)C(=O)NO [Tosedostat] + CS(=O)(=O)N1CCN(Cc2cc3nc(-c4cccc5[nH]ncc45)nc(N4CCOCC4)c3s2)CC1 [Pictilisib] (partner 1 µM)
In short: as §1

Tosedostat + Decitabine = compound: CC(C)C[C@@H](C(=O)N[C@H](C(=O)OC1CCCC1)c1ccccc1)[C@H](O)C(=O)NO [Tosedostat] + Nc1ncn([C@H]2C[C@H](O)[C@@H](CO)O2)c(=O)n1 [Decitabine] (partner 2 µM)
In short: as §1

[2] = compound: CC1=NN=C(O1)C2=NN=C(C=C2)N3CCC(CC3)OC4=C(C=CC(=C4)F)Cl + CC(=O)Nc1cccc(-n2c(=O)n(C3CC3)c(=O)c3c(Nc4ccc(I)cc4F)n(C)c(=O)c(C)c32)c1 [Trametinib] (partner 0.02 µM)
In short: as §1

Cell Line	relative viability ([1]; first compound 0.253 µM)	relative viability ([1]; first compound 0.8 µM)	relative viability ([1]; first compound 2.53 µM)	relative viability ([1]; first compound 8 µM)	relative viability (Tosedostat + Pictilisib; first compound 0.02 µM)	relative viability (Tosedostat + Pictilisib; first compound 0.06325 µM)	relative viability (Tosedostat + Pictilisib; first compound 0.2 µM)	relative viability (Tosedostat + Pictilisib; first compound 0.6325 µM)	relative viability (Tosedostat + Pictilisib; first compound 2 µM)	relative viability (Tosedostat + Decitabine; first compound 0.02 µM)	relative viability (Tosedostat + Decitabine; first compound 0.06325 µM)	relative viability (Tosedostat + Decitabine; first compound 0.2 µM)	relative viability (Tosedostat + Decitabine; first compound 0.6325 µM)	relative viability (Tosedostat + Decitabine; first compound 2 µM)	relative viability ([2]; first compound 0.253 µM)	relative viability ([2]; first compound 0.8 µM)	relative viability ([2]; first compound 2.53 µM)	relative viability ([2]; first compound 8 µM)
HOP-62	0.556	0.22	0.452	0.228	0.94	0.676	0.717	0.487	0.867	0.227	0.203	0.258	0.159	0.186	0.361	0.361	0.361	0.397
LC-2-ad	0.394	0.391	0.398	0.379	0.269	0.429	0.661	0.458	0.455	0.777	0.776	0.83	0.746	0.811	0.369	0.35	0.349	0.328
LCLC-97TM1	0.264		0.235	0.205	0.177			0.147	0.186	0.186	0.234	0.212	0.207	0.184	0.175		0.191	0.148
LCLC-103H	0.62	0.657	0.633	0.631	0.733	0.567	0.666	0.714	0.54	0.792	0.745	0.728	0.763	0.76	0.533	0.522	0.489	0.431
LK-2	0.622	0.366	0.308	0.294	0.613	0.583	0.576	0.606	0.812	0.305	0.306	0.237	0.262	0.272	0.728	0.732	0.867	0.828
LOU-NH91		0.715	0.816	0.717	0.594	0.53	0.568	0.495	0.501	0.82	0.797	0.806	0.726	0.74		0.722	0.744	0.77
LU99A	0.349	0.341	0.57	0.385	0.343	0.317	0.295	0.258	0.221	0.906	0.769	0.909	0.744	0.693	0.525	0.59	0.577	0.509
LXF-289	0.898	0.757	1.12	0.967	0.818	0.766	0.752	0.784	0.676	0.409	0.392	0.365	0.387	0.328	0.603	0.582	0.637	0.58
NCI-H23	0.191	0.192	0.288	0.206	0.523	0.466	0.48	0.451	0.324	0.309	0.315	0.323	0.286	0.306	0.34	0.37	0.372	0.381
NCI-H322M	0.51	0.563	0.581	0.543	0.532	0.408	0.45	0.486	0.391	0.69	0.652	0.587	0.636	0.621	0.563	0.487	0.477	0.52
NCI-H358	0.559	0.521	0.614	0.544	0.336	0.366	0.287	0.239	0.327	0.238	0.188	0.143	0.166	0.157	0.131	0.137	0.146	0.124
NCI-H441	0.621	0.632	0.69	0.608	0.549	0.443	0.461	0.379	0.328	0.226	0.253	0.239	0.198	0.244	0.343	0.327	0.462	0.409
NCI-H460	0.215	0.189	0.26	0.23	0.31	0.407	0.353	0.365	0.365	0.514	0.466	0.457	0.468	0.528	0.0953	0.176	0.175	0.15
NCI-H596	0.975	0.853	0.97	0.946	0.424	0.471	0.385	0.446	0.388	1.3	1.13	1.03	0.879	0.838	0.687	0.811	0.714	0.692
NCI-H647	0.462	0.294	0.472	0.248	0.563	0.444	0.553	0.429	0.493	0.332	0.367	0.286	0.404	0.313	0.287	0.5	0.45	0.297
NCI-H650	0.943	0.642	0.985	0.882	0.933	0.736	0.709	0.696	0.578	0.291	0.339	0.316	0.319	0.262	0.933	0.874	0.934	0.862
NCI-H727	0.823	0.597	0.623	0.555	0.36	0.267	0.276	0.373	0.29	0.88	0.9	0.868	0.794	0.754	0.467	0.402	0.385	0.341
NCI-H838	0.74	0.778	0.918	0.787	0.522	0.5	0.456	0.652	0.638	0.483	0.449	0.431	0.421	0.392	0.406	0.429	0.478	0.428

Cell Line	relative viability ([1]; first compound 0.253 µM)	relative viability ([1]; first compound 0.8 µM)	relative viability ([1]; first compound 2.53 µM)	relative viability ([1]; first compound 8 µM)	relative viability (Tosedostat + Pictilisib; first compound 0.02 µM)	relative viability (Tosedostat + Pictilisib; first compound 0.06325 µM)	relative viability (Tosedostat + Pictilisib; first compound 0.2 µM)	relative viability (Tosedostat + Pictilisib; first compound 0.6325 µM)	relative viability (Tosedostat + Pictilisib; first compound 2 µM)	relative viability (Tosedostat + Decitabine; first compound 0.02 µM)	relative viability (Tosedostat + Decitabine; first compound 0.06325 µM)	relative viability (Tosedostat + Decitabine; first compound 0.2 µM)	relative viability (Tosedostat + Decitabine; first compound 0.6325 µM)	relative viability (Tosedostat + Decitabine; first compound 2 µM)	relative viability ([2]; first compound 0.253 µM)	relative viability ([2]; first compound 0.8 µM)	relative viability ([2]; first compound 2.53 µM)	relative viability ([2]; first compound 8 µM)
NCI-H1355	0.571	0.385	0.773	0.692	0.449	0.441	0.352	0.329	0.354	0.347	0.357	0.315	0.332	0.305	0.317	0.379	0.374	0.371
NCI-H1395	0.377	0.378	0.392	0.404	0.627	0.799	0.601	0.606	0.567	0.888	0.689	0.715	0.624	0.622	0.963	0.978	0.89	1
NCI-H1437	0.726	0.851	0.93	0.848	0.407	0.448	0.277	0.232	0.256	0.537	0.569	0.58	0.566	0.564	0.391	0.367	0.491	0.375
NCI-H1651	0.423	0.412	0.448	0.386	0.729	0.64	0.503	0.55	0.451	0.683	0.63	0.501	0.523	0.503	0.651	0.621	0.609	0.576
NCI-H1666	0.686	0.765	0.79	0.715	0.603	0.404	0.5	0.367	0.291	0.776	0.744	0.696	0.727	0.658	0.764	0.761	0.834	0.834
NCI-H1734	0.612	0.413	0.672	0.662	0.471	0.468	0.444	0.459	0.433	0.487	0.509	0.461	0.418	0.446	0.642	0.652	0.663	0.597
NCI-H1755	0.442	0.428	0.465	0.418	0.461	0.489	0.38	0.376	0.276	0.861	0.699	0.712	0.716	0.674	0.619	0.659	0.645	0.643
NCI-H1792	0.535	0.574	0.689	0.472	0.282	0.279	0.272	0.232	0.276	0.62	0.506	0.52	0.465	0.525	0.359	0.398	0.647	0.487
NCI-H1793	0.411	0.482	0.756	0.407	0.484	0.31	0.507	0.403	0.329	0.429	0.435	0.407	0.222	0.346	0.434	0.511	0.509	0.403
NCI-H1915	0.501	0.276	0.464	0.381	1.24	0.955	1	0.815	0.838	0.226	0.283	0.26	0.261	0.214	0.293	0.267	0.277	0.239
NCI-H1944	0.368	0.348	0.561	0.441	0.368	0.37	0.363	0.352	0.356	0.456	0.431	0.458	0.416	0.39	0.339	0.324	0.37	0.342
NCI-H1975			0.717	0.719	0.28	0.311	0.252	0.25	0.241	0.396	0.425	0.4	0.274	0.407	0.171	0.307	0.373	0.385
NCI-H1993	0.713	0.69	0.769	0.652	0.818	0.863	1.01	0.84	0.688	0.487	0.673	0.576	0.511	0.525	0.453	0.523	0.655	0.593
NCI-H2085	0.636	0.667	0.797	0.607	0.445	0.518	0.512	0.593	0.481		0.548	0.495	0.503	0.43	0.326	0.514	0.423	0.363
NCI-H2087	0.903	0.906	0.953	0.704	1.09	0.791	0.946	0.529	0.684	0.37	0.23	0.24	0.224	0.225	0.167	0.196	0.244	0.175
NCI-H2126	0.893	0.854	0.929	0.849	0.506	0.533	0.513	0.437	0.472	0.533	0.583	0.591	0.478	0.462	0.528	0.532	0.504	0.486
NCI-H2170	0.343	0.346	0.472	0.367	0.31	0.33	0.385	0.291	0.289	0.454	0.499	0.491	0.421	0.453	0.377	0.392	0.368	0.356
